In patent US4394503A, “Cephalosporin derivatives” (priority 1981, dated 1983):
Converted amounts (≈) assume the structure as drawn. Where a name gives a salt, the structure may show the parent alone. Read-outs that look alike come from different tables or passages of the source.

Legend:
[1] = test system: Cephalothin-sensitive E. coli, Kl. pneumoniae and Pr. mirabilis (Gn-Ia); assay: In vitro antibacterial activity, two-fold agar dilution, Mueller-Hinton agar (Table 1), group Gn-Ia; type: cell-based; conditions: read-out: Geometric Mean of MIC
Ps. aeruginosa (Gn-III) = assay: In vitro antibacterial activity, two-fold agar dilution, Mueller-Hinton agar (Table 1), group Gn-III; type: cell-based; conditions: Pseudomonas aeruginosa; read-out: Geometric Mean of MIC
[2] = test system: Penicillin-sensitive S. aureus (Gp-Ia); assay: In vitro antibacterial activity, two-fold agar dilution, Mueller-Hinton agar (Table 1), group Gp-Ia; type: cell-based; conditions: Staphylococcus aureus; read-out: Geometric Mean of MIC
[3] = test system: Pr. morganii, Ent. cloacae and Ser. marcescens (Gn-II); assay: In vitro antibacterial activity, two-fold agar dilution, Mueller-Hinton agar (Table 1), group Gn-II; type: cell-based, Pr. morganii (1), Ent. cloacae (2) and Ser. marcescens (2); conditions: read-out: Geometric Mean of MIC
B. fragilis Group II = assay: In vitro antianaerobic activity in GAM agar (Table 4); type: cell-based; conditions: Bacteroides fragilis; read-out: Geometric Mean of MIC
B. fragilis Group I = assay: as above; type: cell-based; conditions: Bacteroides fragilis
[4] = test system: Penicillin-resistant S. aureus (Gp-Ib); assay: In vitro antibacterial activity, two-fold agar dilution, Mueller-Hinton agar (Table 1), group Gp-Ib; type: cell-based; conditions: Staphylococcus aureus; read-out: Geometric Mean of MIC
[5] = test system: Cephalothin-resistant E. coli and Kl. pneumoniae (Gn-Ib); assay: In vitro antibacterial activity, two-fold agar dilution, Mueller-Hinton agar (Table 1), group Gn-Ib; type: cell-based, E. coli (3) and Kl. pneumoniae (3); conditions: Escherichia coli, read-out: Geometric Mean of MIC
[6] = test system: Others Group IV (C. difficile, C. perfringens, P. acne and P. anaerobius); assay: microbe, parasite or virus in culture; type: cell-based; conditions: read-out: Geometric Mean of MIC, GAM agar, 1 strain each
B. fragilis Group III = assay: In vitro antianaerobic activity in GAM agar (Table 4); type: cell-based; conditions: read-out: Geometric Mean of MIC
[7] = prior-art filing; cited from earlier work
B. fragilis A21900 = assay: MIC against selected test organisms (Table 2); type: cell-based; conditions: Bacteroides fragilis, A21900; Anaerobe, CET-S; read-out: Minimum Inhibitory Concentration
B. fragilis A22533 = assay: MIC against selected test organisms (Table 2); type: cell-based; conditions: Bacteroides fragilis, A22533; Anaerobe, AMP-R; read-out: Minimum Inhibitory Concentration
P. aeruginosa A15150 = assay: MIC against selected test organisms (Table 2); type: cell-based; conditions: Pseudomonas aeruginosa, A15150; Gn-III, CET-R; read-out: Minimum Inhibitory Concentration
B. fragilis A20928-1 = assay: MIC against selected test organisms (Table 2); type: cell-based; conditions: Bacteroides fragilis, A209281; Anaerobe, CET-S; read-out: Minimum Inhibitory Concentration
B. fragilis A22693 = assay: MIC against selected test organisms (Table 2); type: cell-based; conditions: Bacteroides fragilis, A22693; Anaerobe, CET-R; read-out: Minimum Inhibitory Concentration
K. pneumoniae D11 = assay: MIC against selected test organisms (Table 2); type: cell-based; conditions: Klebsiella pneumoniae, D11; Gn-Ia, CET-S; read-out: Minimum Inhibitory Concentration
E. coli Juhl [8] = assay: Therapeutic efficacy in experimentally infected mice (Table 5); type: in vivo; conditions: Escherichia coli, im, 120 h; i.m., immediately after intraperitoneal challenge, 5 days observation; read-out: PD50 (median protective dose)
Protocol: (§1) The test compounds were administered intramuscularly immediately after the bacterial challenge.

S. aureus Smith [9] = assay: as above; type: in vivo; conditions: Staphylococcus aureus, im, 120 h; i.m., immediately after intraperitoneal challenge, 5 days observation; read-out: PD50 (median protective dose)
Protocol: as §1

P. aeruginosa A9843 [10] = assay: as above; type: in vivo; conditions: Pseudomonas aeruginosa, A9843, im, 120 h; i.m., immediately after intraperitoneal challenge, 5 days observation; read-out: PD50 (median protective dose)
Protocol: as §1

S. aureus BX-1633 = assay: MIC against selected test organisms (Table 2); type: cell-based; conditions: Staphylococcus aureus, BX1633; Gp-Ib, PC-R; read-out: Minimum Inhibitory Concentration
P. aeruginosa A9843 [11] = assay: MIC against selected test organisms (Table 2); type: cell-based; conditions: Pseudomonas aeruginosa, A9843; Gn-III, CET-R; read-out: Minimum Inhibitory Concentration
B. fragilis A22695 = assay: MIC against selected test organisms (Table 2); type: cell-based; conditions: Bacteroides fragilis, A22695; Anaerobe, AMP-R; read-out: Minimum Inhibitory Concentration
B. fragilis A22021 = assay: MIC against selected test organisms (Table 2); type: cell-based; conditions: Bacteroides fragilis, A22021; Anaerobe, CET-R; read-out: Minimum Inhibitory Concentration
P. acnes A21933 = assay: MIC against selected test organisms (Table 2); type: cell-based; conditions: Cutibacterium acnes, A21933; Anaerobe, CLDM-R; read-out: Minimum Inhibitory Concentration
E. coli Juhl [12] = assay: MIC against selected test organisms (Table 2); type: cell-based; conditions: Escherichia coli; Gn-Ia, CET-S; read-out: Minimum Inhibitory Concentration
C. difficile A21675 = assay: MIC against selected test organisms (Table 2); type: cell-based; conditions: Clostridioides difficile, A21675; Anaerobe, CLDM-R; read-out: Minimum Inhibitory Concentration
C. perfringens A9635 = assay: microbe, parasite or virus in culture; type: cell-based; conditions: Clostridium perfringens, A9635, read-out: Minimum Inhibitory Concentration
P. mirabilis A9554 = assay: MIC against selected test organisms (Table 2); type: cell-based; conditions: Proteus mirabilis, A9554; Gn-Ia, CET-S; read-out: Minimum Inhibitory Concentration
E. cloacae A9656 = assay: MIC against selected test organisms (Table 2); type: cell-based; conditions: Enterobacter cloacae, Gn-II, CET-R, read-out: Minimum Inhibitory Concentration
E. coli A15148 = assay: MIC against selected test organisms (Table 2); type: cell-based; conditions: Escherichia coli, A15148; Gn-Ib, CET-R; read-out: Minimum Inhibitory Concentration
S. aureus Smith [13] = assay: MIC against selected test organisms (Table 2); type: cell-based; conditions: Staphylococcus aureus; Gp-Ia, PC-S; read-out: Minimum Inhibitory Concentration
K. pneumoniae A 9867 = assay: MIC against selected test organisms (Table 2); type: cell-based; conditions: Klebsiella pneumoniae, A9867; Gn-Ib, CET-R; read-out: Minimum Inhibitory Concentration
S. aureus A15092 = assay: MIC against selected test organisms (Table 2); type: cell-based; conditions: Staphylococcus aureus, Gp-Ib, PC-R, read-out: Minimum Inhibitory Concentration
P. morganii A9553 = assay: MIC against selected test organisms (Table 2); type: cell-based; conditions: Morganella morganii, A9553; Gn-II, CET-R; read-out: Minimum Inhibitory Concentration
S. marcescens A20019 = assay: MIC against selected test organisms (Table 2); type: cell-based; conditions: Serratia marcescens, A20019; Gn-II, CET-R; read-out: Minimum Inhibitory Concentration
S. aureus A9497 = assay: MIC against selected test organisms (Table 2); type: cell-based; conditions: Staphylococcus aureus, Gp-Ia, PC-S, read-out: Minimum Inhibitory Concentration
P. aeruginosa A20717 = assay: MIC against selected test organisms (Table 2); type: cell-based; conditions: Pseudomonas aeruginosa, A20717; Gn-III, CET-R; read-out: Minimum Inhibitory Concentration

CC(C)Sc1cc[n+](CC2=C(C(=O)[O-])N3C(=O)C(NC(=O)/C(=N\OC(C)(C)C(=O)O)c4csc(N)n4)C3SC2)cc1 (stereo not drawn) [Example 5, 7-[(Z)-2-(2-Aminothiazol-4-yl)-2-(2-carboxyprop-2-oxyimino)-acetamido]-3-[(4-isopropylthiopyridinium)methyl]-3-cephem-4-carboxylate]
MIC [1]: 0.11 µg/mL (≈ 0.177 µM)
MIC (Ps. aeruginosa (Gn-III)): 12.5 µg/mL (≈ 20.1 µM)
MIC [2]: 4.7 µg/mL (≈ 7.57 µM)
MIC [3]: 2.4 µg/mL (≈ 3.87 µM)
MIC (B. fragilis Group II): 25 µg/mL (≈ 40.3 µM)
MIC (B. fragilis Group I; read-out: Geometric Mean of MIC): 3.2 µg/mL (≈ 5.16 µM)
MIC [4]: 12.5 µg/mL (≈ 20.1 µM)
MIC [5]: 1 µg/mL (≈ 1.61 µM)
MIC ([6]; Example 5 ceftazidime (mean of 2 experiments)): 3.5 µg/mL (≈ 5.64 µM)
MIC (B. fragilis Group III): > 100 µg/mL

CC(C)(O/N=C(\C(=O)N[C@@H]1C(=O)N2C(C(=O)[O-])=C(C[n+]3ccccc3)CS[C@H]12)c1csc(N)n1)C(=O)O [bishydrochloride of ceftazidime]
storage stability [7]: good storage stability

CSc1ccc[n+](CC2=C(C(=O)[O-])N3C(=O)C(NC(=O)/C(=N\OC(C)(C)C(=O)O)c4csc(N)n4)C3SC2)c1 (stereo not drawn) [Example 1, 7-[(Z)-2-(2-Aminothiazol-4-yl)-2-(2-carboxyprop-2-oxyimino)acetamido]-3-[(3-methylthiopyridinium)methyl]-3-cephem-4-carboxylate]
MIC (B. fragilis A21900): 6.3 µg/mL (≈ 10.6 µM)
MIC (B. fragilis A22533): > 100 µg/mL
MIC (P. aeruginosa A15150): 1.6 µg/mL (≈ 2.7 µM)
MIC (B. fragilis A20928-1): 6.3 µg/mL (≈ 10.6 µM)
MIC (B. fragilis A22693): 25 µg/mL (≈ 42.2 µM)
MIC (K. pneumoniae D11): 0.4 µg/mL (≈ 0.675 µM)
ED50 (E. coli Juhl [8]): 0.46 mg/kg
ED50 (S. aureus Smith [9]): 6 mg/kg
ED50 (P. aeruginosa A9843 [10]): 12 mg/kg
MIC (S. aureus BX-1633): 12.5 µg/mL (≈ 21.1 µM)
MIC (P. aeruginosa A9843 [11]): 3.1 µg/mL (≈ 5.23 µM)
MIC [1]: 0.11 µg/mL (≈ 0.186 µM)
MIC (Ps. aeruginosa (Gn-III)): 3.5 µg/mL (≈ 5.91 µM)
MIC [2]: 4.7 µg/mL (≈ 7.93 µM)
MIC (B. fragilis A22695): 50 µg/mL (≈ 84.4 µM)
MIC [3]: 2.8 µg/mL (≈ 4.72 µM)
MIC (B. fragilis A22021): 25 µg/mL (≈ 42.2 µM)
MIC (P. acnes A21933): 1.6 µg/mL (≈ 2.7 µM)
MIC (E. coli Juhl [12]): 0.2 µg/mL (≈ 0.337 µM)
MIC (C. difficile A21675): > 100 µg/mL
MIC (C. perfringens A9635): 25 µg/mL (≈ 42.2 µM)
MIC (P. mirabilis A9554): 0.1 µg/mL (≈ 0.169 µM)
MIC (E. cloacae A9656): 0.4 µg/mL (≈ 0.675 µM)
MIC [4]: 12.5 µg/mL (≈ 21.1 µM)
MIC (E. coli A15148): 0.4 µg/mL (≈ 0.675 µM)
MIC [5]: 1.1 µg/mL (≈ 1.86 µM)
MIC (S. aureus Smith [13]): 6.3 µg/mL (≈ 10.6 µM)
MIC (K. pneumoniae A 9867): 3.1 µg/mL (≈ 5.23 µM)
MIC (S. aureus A15092): 12.5 µg/mL (≈ 21.1 µM)
MIC (P. morganii A9553): 1.6 µg/mL (≈ 2.7 µM)
MIC (S. marcescens A20019): 0.2 µg/mL (≈ 0.337 µM)
MIC (S. aureus A9497): 3.1 µg/mL (≈ 5.23 µM)
MIC (P. aeruginosa A20717): 12.5 µg/mL (≈ 21.1 µM)

CSc1cccc[n+]1CC1=C(C(=O)[O-])N2C(=O)C(NC(=O)/C(=N\OC(C)(C)C(=O)O)c3csc(N)n3)C2SC1 (stereo not drawn) [Example 3, 7-[(Z)-2-(2-Aminothiazol-4-yl)-2-(2-carboxyprop-2-oxyimino)-acetamido]-3-[(2-methylthiopyridinium)methyl]-3-cephem-4-carboxylate]
MIC [1]: 0.11 µg/mL (≈ 0.186 µM)
MIC (Ps. aeruginosa (Gn-III)): 5.6 µg/mL (≈ 9.45 µM)
MIC [2]: 9.5 µg/mL (≈ 16 µM)
MIC [3]: 3.2 µg/mL (≈ 5.4 µM)
MIC [4]: 12.5 µg/mL (≈ 21.1 µM)
MIC [5]: 2 µg/mL (≈ 3.37 µM)

CCSc1cc[n+](CC2=C(C(=O)[O-])N3C(=O)C(NC(=O)/C(=N\OC(C)(C)C(=O)O)c4csc(N)n4)C3SC2)cc1 (stereo not drawn) [Example 4, 7-[(Z)-2-(2-Aminothiazol-4-yl)-2-(2-carboxyprop-2-oxyimino)acetamido]-3-[(4-ethylthiopyridinium)methyl]-3-cephem-4-carboxylate]
MIC [1]: 0.087 µg/mL (≈ 0.143 µM)
MIC (Ps. aeruginosa (Gn-III)): 8.8 µg/mL (≈ 14.5 µM)
MIC [2]: 6.3 µg/mL (≈ 10.4 µM)
MIC [3]: 2.1 µg/mL (≈ 3.46 µM)
MIC (B. fragilis Group II): 12.5 µg/mL (≈ 20.6 µM)
MIC (B. fragilis Group I; read-out: Geometric Mean of MIC, GAM agar, Example 4, ceftazidime (mean of 3 experiments), nonlactamase-producing, ampicillin-sensitive, 3 strains): 2.5 µg/mL (≈ 4.12 µM)
MIC [4]: 12.5 µg/mL (≈ 20.6 µM)
MIC [5]: 1.3 µg/mL (≈ 2.14 µM)
MIC ([6]; Example 4, ceftazidime (mean of 3 experiments)): 8.9 µg/mL (≈ 14.7 µM)
MIC (B. fragilis Group III): 100 µg/mL (≈ 165 µM)
